Laboratory results from US20040053234A1, “Polynucletides that control delta-6 desaturase genes and methods for identifying compounds for modulating delta-6 desaturase” (priority 2000, published 2004).
Like-named read-outs stand apart in the source and are kept apart here. Marks after values point to notes of the source that are not given here.

Assays:
[1] = system: hD6D-1 control region; assay: Luciferase activity of HepG2 clones stably transfected with hD6D-1 control region-luciferase construct pGh4015.1; assay type: cell-based, human
Description: Stable transfection was performed using the HepG2 cell line, which was adapted to grow in tissue culture dishes treated with 0.1% gelatin. The day before transfection, the cells were plated into 60 mm tissue culture dishes, so that they were 85-95% confluent on the day of transfection. For each dish of cells to be transfected, 10 μg of plasmid DNA (pGh4015.1) along with 1 μg of the vector pRSV-NEO (ATCC# 37198), was diluted in 500 μl of Opti-MEM (GIBCO-BRL) without serum. For each dish of cells to be transfected, 10 μl of Lipofectamine 2000 reagent (GIBCO BRL) was diluted in 500 μl of Opti-MEM, and incubated at room temperature for 5 min. The diluted DNA was mixed with the diluted lipofectamine and incubated at room temperature for 20 min. The DNA-lipofectamine complexes (1 ml) were put directly into each dish of cells to be transfected and mixed gently by rocking the dish back and forth The cells were incubated at 37° C. in a CO2 incubator for 24 h Each transfected dish of cells was then passaged into two 150 mm tissue culture dishes. The following day, geneticin (GIBCO BRL) was added to the culture medium at a concentration of 800 μg/ml. The cells were kept in selection for 4 weeks. Clones were transferred into a 96-well plate (one clone per well) until they reached confluence. Subsequently, the clones were transferred to a 24-well plate before been tested for luciferase activity.
The luciferase assays were done using the Luciferase Assay System from Promega (Promega, Wis.). Briefly, the cells grown in a 24well plate, were washed with PBS (Ca^2+ and Mg^2+ free) and lysed with about 100 μl of 1× CCLR (Cell Culture Lysis Reagent, Promega). Twenty μl of cell lysate was dispensed into a luminometer tube. The tube was placed in the luminometer (Berthold #9707, Monolight 3010, PharMingen, San Diego, Calif.) and 100 μl of Luciferase Assay Reagent (Promega) was injected into the tube. The luminometer was programmed to perform a 3-second measurement delay followed by a 15-second measurement read for luciferase activity. The results were expressed in Relative Light Unit per 15 seconds (RLU/15s).
The HepG2 stable clone 19 and 72, were plated in a 24-well plate (one plate per clone) treated with 0.1% gelatin, containing α-MEM supplemented with 10% FBS (Fetal Bovine Serum) and 200 μg/ml of geneticin (all from GIBCO BRL). When the cells reached about 80% confluence, the culture medium was replace with Williams' medium E (GIBCO) containing insulin (1 μM), dexamethasone (1 nM) and 0.27% BSA (Bovine Serum Albumin) all from Sigma. Six wells for each plate were treated with DHA at a concentration of 0, 25, 50 and 100 μM. After an incubation time of 6, 24 and 48 h, the wells were washed with PBS and the cells lysed with 100 μl of 1× CCLR (Promega). The luciferase assays were performed using a single tube luminometer using the Luciferase Assay System from Promega as indicated above.

[2] = Plasma phospholipid arachidonic acid content in streptozotocin-induced diabetic rats; assay type: in vivo, rat
Description: Eighteen rats were injected with 75 mg STZ/kg bd wt to induce the diabetic state. After 4 days the blood glucose level in each of the STZ rats was checked. The blood sample was obtained from the tail vein. […] The diabetic rats were housed 2 per cage. After 2 weeks, approximately one half of the diabetic rats and control rats were sacrificed. After 7 weeks, the remaining diabetic and control rats were sacrificed. By sacrificing controls at the same time we eliminated any possible age effect when completing our data analysis. The rats were sacrificed by exsanguination and tissues were removed for fatty acid analyses. […]
The different lipid classes from the RBCs (phospholipids), plasma and liver (phospholipids, free fatty acids, triglycerides and cholesterol esters) were separated using neutral lipid thin-layer chromatography. […] Compounds were detected by spraying the plates with 2,7-dichlorofluorescein and the silica gel containing each of the lipid class bands was scraped from the plate and placed in screw cap test tubes.
Four ml of BF3-methanol was added to the scraped silica gel fractions or the dry cholesterol ester fraction and heated for 30 min at 90° C. […] The fatty acid methyl esters (FAME) were dissolved in HPLC grade hexane and analyzed by gas chromatography. […]

[3] = system: delta-6-desaturase; assay type: in vivo, rat; conditions: for D6D activity: hepatic microsomes
Description: As described in other Examples, female Wistar rats were intraperitoneally (i.p.) injected with 50 mg of streptozotocin per kg of body weight. Three days later, animals received a second dose of streptozotocin (25 mg/kg body weight). Two and 7 weeks after the onset of diabetes, non-fasted control and streptozotocin (blood glucose levels 21 to >33 mmoles/L) treated rats were put under light halothane (15% in mineral oil) anaesthesia and sacrificed by exsanguination between 9:00 and 10:00 a.m. Under these experimental conditions, variations in enzyme activity caused by circadian rhythm (Actis Dato et al., 1973, Lipids, 8: 1-6) can be avoided and a substantial (although submaximal) activity of liver desaturase can be obtained (Actis Dato et al., 1973, Lipids, 8: 1-6 and Inkpen et al., 1969, J. Lipid Res., 10: 277-282). Livers were quickly rinsed with cold 0.9% NaCl solution, weighed and minced with scissors. All procedures were performed at 4° C. unless otherwise specified. Microsomes were isolated by differential ultracentrifugation as previously described (de Antueno et al., 1994, Lipids, 29: 327-331). Briefly, livers were homogenized in a solution (1:3 w/v) containing 0.25 M sucrose, 62 mM potassium phosphate buffer (pH 7.0), 0.15 M KCl, 1.5 mM N-acetylcysteine, 5 mM MgCl2, and 0.1 mM EDTA using 4 strokes of a Potter-Elvehjem tissue homogenizer. […] The absence of mitochondrial contamination was enzymatically assessed as previously described (Kilberg M. S. and Christensen H. N., 1979, Biochemistry, 18: 1525-1530). The protein concentration was measured by the method of Lowry et al. with bovine serum albumin as the standard (Lowry et al., 1951, J. Biol. Chem., 193: 265-275).
(§1) The activities of delta-5 and delta-6 desaturases were determined by measuring the conversion of [1-^14C]20:3n-6 (dihomogamma-linolenic acid) to [1-^14C]20:4n-6 (arachidonic acid) and [1-^14C]18:2n-6 (linoleic acid) to [1-^14C]18:3n-6 (gamma-linolenic acid), respectively. […]
(§2) Radiolabeled fatty acid methyl esters (FAME) were analyzed as previously described (de Antueno et al., 1993, Lipids, 28: 285-290). […]

[4] = system: delta-5-desaturase; assay: Hepatic delta-5-desaturase activity in streptozotocin treated rats; assay type: in vivo, rat; conditions: hepatic microsomes
Description: As described in other Examples, female Wistar rats were intraperitoneally (i.p.) injected with 50 mg of streptozotocin per kg of body weight. Three days later, animals received a second dose of streptozotocin (25 mg/kg body weight). Two and 7 weeks after the onset of diabetes, non-fasted control and streptozotocin (blood glucose levels 21 to >33 mmoles/L) treated rats were put under light halothane (15% in mineral oil) anaesthesia and sacrificed by exsanguination between 9:00 and 10:00 a.m. […] The absence of mitochondrial contamination was enzymatically assessed as previously described (Kilberg M. S. and Christensen H. N., 1979, Biochemistry, 18: 1525-1530). The protein concentration was measured by the method of Lowry et al. with bovine serum albumin as the standard (Lowry et al., 1951, J. Biol. Chem., 193: 265-275).
as §1, §2

## CC/C=C\C/C=C\C/C=C\C/C=C\C/C=C\C/C=C\CCC(=O)O [DHA, docosahexaenoic acid]
[1]; HepG2 clone 19, DHA 25 μM, 6 h
  Luciferase activity: 3.91E+06 RLU/15 s
[1]; HepG2 clone 19, DHA 25 μM, 24 h
  Luciferase activity: 8.33E+06 RLU/15 s
[1]; HepG2 clone 19, DHA 25 μM, 48 h
  Luciferase activity: 1.35E+07 RLU/15 s
[1]; HepG2 clone 19, DHA 50 μM, 6 h
  Luciferase activity: 3.96E+06 RLU/15 s
[1]; HepG2 clone 19, DHA 50 μM, 24 h
  Luciferase activity: 6.32E+06 RLU/15 s
[1]; HepG2 clone 19, DHA 50 μM, 48 h
  Luciferase activity: 8.73E+06 RLU/15 s
[1]; HepG2 clone 19, DHA 100 μM, 6 h
  Luciferase activity: 2.11E+06 RLU/15 s
[1]; HepG2 clone 19, DHA 100 μM, 24 h
  Luciferase activity: 3.87E+06 RLU/15 s
[1]; HepG2 clone 19, DHA 100 μM, 48 h
  Luciferase activity: 4.16E+06 RLU/15 s
[1]; HepG2 clone 72, DHA 25 μM, 6 h
  Luciferase activity: 8.27E+05 RLU/15 s
[1]; HepG2 clone 72, DHA 25 μM, 24 h
  Luciferase activity: 2.66E+06 RLU/15 s
[1]; HepG2 clone 72, DHA 25 μM, 48 h
  Luciferase activity: 3.68E+06 RLU/15 s
[1]; HepG2 clone 72, DHA 50 μM, 6 h
  Luciferase activity: 6.69E+05 RLU/15 s
[1]; HepG2 clone 72, DHA 50 μM, 24 h
  Luciferase activity: 1.43E+06 RLU/15 s
[1]; HepG2 clone 72, DHA 50 μM, 48 h
  Luciferase activity: 2.18E+06 RLU/15 s
[1]; HepG2 clone 72, DHA 100 μM, 6 h
  Luciferase activity: 3.07E+05 RLU/15 s
[1]; HepG2 clone 72, DHA 100 μM, 24 h
  Luciferase activity: 8.55E+05 RLU/15 s
[1]; HepG2 clone 72, DHA 100 μM, 48 h
  Luciferase activity: 9.80E+05 RLU/15 s

## CN(N=O)C(=O)N[C@H]1C(O)O[C@H](CO)[C@@H](O)[C@@H]1O (stereo partly drawn) [STZ, 2-deoxy-2-[([methylnitroso-amino]carbonyl)amino]-D-glucopyranose]
[2]; 2 week streptozotocin-induced diabetic rats
  Reduction of plasma phospholipid AA content: 31%
[2]; 7 week streptozotocin-induced diabetic rats
  Reduction of plasma phospholipid AA content: 27%
[3]; 2 weeks after STZ treatment
  D6D activity: 125.4 ± 34^a pmol/mg microsomal protein/min
[3]; 7 weeks after STZ treatment
  D6D activity: 102.8 ± 29^c pmol/mg microsomal protein/min
[3]; streptozotocin diabetic rats
  Reduction of delta-6-desaturase activity in hepatic microsomes compared to control rats: 37%
[4]; 2 weeks after STZ treatment
  D5D activity: 195.6 ± 56^b pmol/mg microsomal protein/min
[4]; 7 weeks after STZ treatment
  D5D activity: 129.7 ± 30^d pmol/mg microsomal protein/min
